# Legend:
# [1] = system: infiltration of lymphocytes into joint tissues; assay: Histological analysis of ankle joints of CIA rats (hematoxylin and eosin); assay type: in vivo, rat; conditions: 35 days after immunization, FIG. 5
# Source text: Joints dissected were washed with PBS and fixed for 24 hr in 4% paraformaldehyde, followed by decalcification for 2-3 days in decalcification solution (Merck). The decalcified joint tissues were embedded in paraffin, sectioned to […], deparaffinized, stained with hematoxylin and eosin, and observed under microscope. A basic dye, hematoxylin binds to nucleus containing negative-charged DNA and RNA molecules and an acidic dye, eosin binds to cytoplasmic proteins and collagen with positive charge.
# [2] = system: collagen-induced arthritis (CIA); assay: Comparative tests for treatment efficacy in collagen-induced arthritis (CIA) rats; assay type: in vivo, Lewis rat; conditions: acute phase (until 35 days after immunization), FIGS. 3 and 4
Molecule,infiltration of lymphocytes (immune cells) into joints [1],treatment efficacy on arthritis during acute phase [2]
"CN(Cc1cnc2nc(N)nc(N)c2n1)c1ccc(C(=O)N[C@@H](CCC(=O)O)C(=O)O)cc1 [MTX, methotrexate]",little or no occurrence of the infiltration of lymphocytes,better until acute phase (until 35 days after immunization) than the present composition
Lactobacillus casei [lactic acid bacteria],,low

# Reference: patent US20090028840A1, “Compositions For Preventing Or Treating Arthritis Comprising Lactic Acid Bacteria and Collangen As Active Ingredients” (Gwangju Institute of Sciecne and Technology, priority 2005, published 2009)
